Patent publication US20240293418A1, “COMBINATION THERAPY FOR TREATING CANCER” (Epizyme, Inc., priority 2016, published 2024)
pIC50: −log10 of the molar value. Read-outs that look alike come from different tables or passages of the source.

Key:
LP-1 [1] = experiment: 7 day pretreatment + 4-day co-treatment combination model (Cell Titer Glo); conditions: for pIC50: Homo sapiens, LP-1, 96 h, read-out: 4-day IC50; for combinatorial effect by Loewe volumes: second agent + tazemetostat, 7 day pretreatment + 4-day co-treatment, LP-1 t(4;14)
Description: (§1) Assay plates were developed for endpoint analysis using Cell Titer Glo to measure ATP content, which was used as an indicator of cell viability. DMSO concentration was kept constant throughout the assay at less than 0.2% v/v.
(§2) Cell lines: The cell lines MI1.S and U266B1 were obtained from American Type Culture Collection (ATCC; Rockville, MD). The cell lines LP-1, L-363 were obtained from Deutsche Sammlung von Mikroorganismen and Zellkulturen (DSMZ; Braunschweig, Germany) and the cell line KMS-28BM was obtained from Japanese Collection of Research Bioresources Cell Bank (JCRB, Osaka Japan). All cells were maintained as instructed by the supplier and cultures were maintained at 37° C. in a humidified atmosphere and 5% CO2.
(§3) Loewe volumes greater than 1 denoted synergy and volumes <−1 denoted antagonism.

MM1.S [2] = experiment: as above; conditions: Homo sapiens, MM1.S, 96 h, read-out: 4-day IC50
Description: as §1, §2, §3

L-363 [3] = experiment: as above; conditions: for pIC50: Homo sapiens, L-363, 96 h, read-out: 4-day IC50; for combinatorial effect by Loewe volumes: second agent + tazemetostat, 7 day pretreatment + 4-day co-treatment, L-363 t(20;22)
Description: as §1, §2, §3

RPMI-8226 [4] = experiment: 7-day co-treatment combination model (Cell Titer Glo)
Protocol: as §1
(§4) Cell lines: The cell lines MI1.S and U266B1 were obtained from American Type Culture Collection (ATCC; Rockville, MD). […] All cells were maintained as instructed by the supplier and cultures were maintained at 37° C. in a humidified atmosphere and 5% CO2.
as §3

MM1.S [5] = experiment: as above; conditions: Homo sapiens, 168 h, read-out: 7-day IC50
Protocol: as §1, §4, §3

U266 [6] = experiment: 7 day pretreatment + 4-day co-treatment combination model (Cell Titer Glo); conditions: for pIC50: Homo sapiens, U-266, 96 h, read-out: 4-day IC50; for combinatorial effect by Loewe volumes: second agent + tazemetostat, 7 day pretreatment + 4-day co-treatment, U266 t(11;14)
Description: as §1, §2, §3

KMS-28-BM [7] = experiment: as above; conditions: for pIC50: KMS-28BM, 96 h, read-out: 4-day IC50; for Loewe volume / combinatorial effect by Loewe volumes: second agent + tazemetostat, 7 day pretreatment + 4-day co-treatment; for Loewe volume: KMS-28-BM; for combinatorial effect by Loewe volumes: KMS-28-BM t(4;14)
Protocol: as §1
(§5) All cells were maintained as instructed by the supplier and cultures were maintained at 37° C. in a humidified atmosphere and 5% CO2.
as §3

KMS-28-BM [8] = experiment: 7-day co-treatment combination model (Cell Titer Glo); conditions: for pIC50: KMS-28BM, 168 h, read-out: 7-day IC50; for combinatorial effect by Loewe volumes / Loewe volume: second agent + tazemetostat; for combinatorial effect by Loewe volumes: 7-day co-treatment, KMS-28-BM t(4;14); for Loewe volume: 7 day co-treatment, KMS-28-BM
Protocol: as §1, §5, §3

LP-1 [9] = experiment: as above; conditions: for combinatorial effect by Loewe volumes: 7-day co-treatment, LP-1 t(4;14)
Protocol: as §1, §5, §3

U266 [10] = test system: U266
Protocol: as §1, §4, §3

MOLP-8 [11] = experiment: 7 day pretreatment + 4-day co-treatment combination model (Cell Titer Glo); conditions: second agent + tazemetostat, MOLP-8 t(11;14)
Protocol: as §1, §5, §3

MOLP-8 [12] = experiment: 7-day co-treatment combination model (Cell Titer Glo); conditions: second agent + tazemetostat; for combinatorial effect by Loewe volumes: 7-day co-treatment, MOLP-8 t(11;14); for Loewe volume: 7 day co-treatment, MOLP-8
Protocol: as §1, §5, §3

L-363 [13] = test system: L-363
Protocol: as §1, §4, §3

Jeko-1 [14] = experiment: mantle cell lymphoma 7 day co-treatment model; format: cell-based
Jeko-1 [15] = experiment: mantle cell lymphoma 7 day pretreatment + 4-day co-treatment model (Cell Titer Glo)
Description: Cells were then co-treated in triplicate with a second compound, 3-fold serially diluted for additional 4 days. After this time, plates were developed for endpoint analysis using Cell Titer Glo to measure ATP content, which is used as an indicator of cell viability.
A Loewe volume greater than 1 denoted synergy. A Loewe volume between −1 and 1 denoted additivity, and a negative Loewe volume of less than −1, denoted antagonism.

[16] = test system: multiple myeloma cell lines and primary patient samples; conditions: reported in the literature; cited from earlier work
[17] = test system: Ikaros, Aiolos, IRF4 expression in RPMI-8226 cells; experiment: western blot of Ikaros, Aiolos, IRF4 in RPMI-8226 cells; format: cell-based; conditions: 3 days
RPMI-8226 [18] = experiment: apoptosis in RPMI-8226 cells; format: cell-based; conditions: tazemetostat 31, 125, 500 nM + pomalidomide 3, 12.5, 50 nM, 3 days
[19] = second agent + tazemetostat, 7 day co-treatment
[20] = second agent + tazemetostat, 7 day pretreatment + 4-day co-treatment, Jeko-1

Row | SMILES | pIC50 (LP-1 [1]) | pIC50 (MM1.S [2]) | pIC50 (L-363 [3]) | pIC50 (MM1.S [5]) | pIC50 (U266 [6]) | pIC50 (KMS-28-BM [7]) | pIC50 (KMS-28-BM [8]) | combinatorial effect by Loewe volumes (LP-1 [9]; second agent + tazemetostat) | combinatorial effect by Loewe volumes (LP-1 [1]) | combinatorial effect by Loewe volumes (MOLP-8 [11]) | combinatorial effect by Loewe volumes (L-363 [3]) | Loewe volume (RPMI-8226 [4]; [19]) | combinatorial effect by Loewe volumes (MOLP-8 [12]) | Loewe volume (MOLP-8 [12]) | combinatorial effect by Loewe volumes (U266 [6]) | Loewe volume (KMS-28-BM [7]) | combinatorial effect by Loewe volumes (KMS-28-BM [7]) | combinatorial effect by Loewe volumes (KMS-28-BM [8]) | Loewe volume (KMS-28-BM [8]) | further results
1 | CC(C)C[C@H](NC(=O)[C@H](Cc1ccccc1)NC(=O)c1cnccn1)B(O)O [Bortezomib, bortezomib] | 8.52 | 8.85 | 8.30 | 8.72 | 8.70 | 8.52 | 8.28 |  |  |  |  |  |  |  |  |  |  |  |  | vbliss (RPMI-8226 [4]; second agent + tazemetostat, 7 day co-treatment, printed in Loewe volume column): vbliss: 0.24
2 | C[C@@H]1C[C@H]2[C@@H]3CCC4=CC(=O)C=C[C@]4(C)[C@@]3(F)[C@@H](O)C[C@]2(C)[C@@]1(O)C(=O)CO [Dexamethasone, dexamethasone] | 8.40 | 7.92 | 8.15 | 8.15 | < 5.00 | 8.22 | 8.57 | S (Synergy) | S (Synergy) | S (Synergy) | A (Additive) | 1.73 | S (Synergy) | 3.61 | A (Additive) | 2.45 | S (Synergy) | S (Synergy) | 4.34 | pIC50 (LP-1 [9]; Homo sapiens, LP-1, 168 h, read-out: 7-day IC50): 8.30; Loewe volume (LP-1 [9]; second agent + tazemetostat, 7 day co-treatment, LP-1): 4.79; pIC50 (U266 [10]): < 5.00; pIC50 (L-363 [13]): 8.46; pIC50 (Jeko-1 [14]; Homo sapiens, 168 h, second agent alone, 7 day co-treatment model): 6.11; Best CI (Jeko-1 [14]; [19]): 0.16; Bliss Volume (Jeko-1 [14]; [19]): 2.96; HSA Volume (Jeko-1 [14]; [19]): 5.19; Loewe Volume (Jeko-1 [14]; [19]): 4.32; Synergy Score (Jeko-1 [14]; [19]): 4.36; pIC50 (Jeko-1 [15]; Homo sapiens, JeKo-1, 96 h, read-out: Second agent IC50): < 5.00; Best CI (Jeko-1 [15]; [20]): 0.22; Bliss Volume (Jeko-1 [15]; [20]): 4.48; HSA Volume (Jeko-1 [15]; [20]): 7.04; Loewe Volume (Jeko-1 [15]; [20]): 6.91; Synergy Score (Jeko-1 [15]; [20]): 6.33
3 | CCCc1cc(C)[nH]c(=O)c1CNC(=O)c1cc(-c2ccnc(N3CCN(C)CC3)c2)cc2c1cnn2C(C)C [GSK343] |  |  |  |  |  |  |  |  |  |  |  |  |  |  |  |  |  |  |  | growth of multiple myeloma cell lines and primary patient samples [16]: inhibited
4 | Cc1[nH]c2ccccc2c1CCNCc1ccc(/C=C/C(=O)NO)cc1 [Panobinostat, panobinostat] | 8.52 | 8.24 | 8.52 | 8.87 | 8.30 | 8.60 | 8.90 | S (Synergy) | S (Synergy) | A (Additive) | S (Synergy) | 2.24 | S (Synergy) | 2.14 | S (Synergy) | 2.03 | S (Synergy) | S (Synergy) | 5.19 | 
5 | Nc1cccc2c1C(=O)N(C1CCC(=O)NC1=O)C2=O (stereo not drawn) [Pomalidomide, pomalidomide] | 6.97 | 7.33 | 7.16 | 7.45 | < 5.00 | 5.60 | 7.00 | S (Synergy) | S (Synergy) | S (Synergy) | S (Synergy) | 3.9 | S (Synergy) | 5.73 | S (Synergy) | 6.37 | S (Synergy) | S (Synergy) | 7.65 | IRF4 expression, combined treatment ([17]; pomalidomide + tazemetostat vs either alone): enhances repression of IRF4; Ikaros and Aiolos levels ([17]; single agent 12.5, 50 or 200 nM): results in Ikaros and Aiolos degradation; curve shift analysis of combination (RPMI-8226 [4]; pomalidomide + tazemetostat, 7-day combination assay (FIG. 8)): synergy; apoptosis (RPMI-8226 [18]): enhanced apoptosis
6 | CCN(c1cc(-c2ccc(CN3CCOCC3)cc2)cc(C(=O)NCc2c(C)cc(C)[nH]c2=O)c1C)C1CCOCC1 [Tazemetostat, tazemetostat] |  |  |  |  |  |  |  |  |  |  |  |  |  |  |  |  |  |  |  | IRF4 expression, single agent ([17]; single agent 31, 125 or 500 nM): reduces TRF4 expression
